{"source": "patent US20220125841A1", "about": "“SODIUM F[…] A REVERSAL AGENT FOR AN ANTI-F[…] T CELLS AND FLUORESCEIN-PHOSPHOLIPID-ETHERS OR PROFLUORESCEIN-PHOSPHOLIPID-ETHERS” (Seattle Children's Hospital (dba Seattle Children'a …, priority 2019, published 2022)", "key": {"[1]": {"tested_on": "antiFL(FITC-E2) CAR T cells", "assay": "Chromium release assay and cytokine release assay, antiFL(FITC-E2) CAR T cells with FL-PLE-loaded K562 target cells", "format": "cell-based", "settings": "50 μM NaFL; K562 target cells with 5 μM FL-PLE", "procedure": "FIG. 1B depicts a chromium release assay for effector T cells (CD8+ Mock or CD8+ antiFL(FITC-E2) CAR(Lg) T cells) mixed at various ratios with target cells (effector:target, E:T). The target cells are K562 control, K562 OKT3+, and K562 with 5 μM FL-PLE. One CD8+ antiFL(FITC-E2) population was exposed to 50 μM NaFL.\nFIG. 1C depicts a cytokine release assay for helper cells (CD4+ Mock or CD4+ antiFL(FITC-E2) CAR(Lg) T cells) and effector T cells (CD8+ Mock or CD8+ antiFL(FITC-E2) CAR(Lg) T cells) mixed with target cells. The target cells are K562 control, K562 OKT3+, and K562 with 5 μM FL-PLE. One CD4+ and CD8+ antiFL(FITC-E2) population was exposed to 50 μM NaFL.\nK562 (leukemia) cells were incubated with FL-PLE overnight. Cell integration of FL-PLE was analyzed by flow cytometry (FIG. 1A). There was a clear shift from the control K562 parental with the K562 parental incubated with 5 μM FL-PLE. This slight shift corresponded to a difference in the amount of FL exposed on the surface of the cell for CAR T cell recognition. These cells were used in a chromium release assay (FIG. 1B) and a cytokine release assay (FIG. 1C) to test whether the activation of CD8+ and CD4+ antiFL(FITC-E2) CAR T cells through FL-PLE integrated into K562 cells could be stopped in the presence of sodium fluorescein (NaFL). […]"}, "[2]": {"tested_on": "antiFL(Mut2) CAR T cells", "assay": "Cytokine release assay with dose titration of NaFL (Example 3)", "format": "cell-based", "procedure": "FIG. 3D depicts a cytokine release assay measuring IL-2 using the effector cells generated in FIG. 3A-B, target cells tested in FIG. 3C, and a dose titration of NaFL (0, 1, 5, or 10 μM).\nFIG. 3E depicts a cytokine release assay measuring IFN-γ using the effector cells generated in FIG. 3A-B, target cells tested in FIG. 3C, and a dose titration of NaFL (0, 1, 5, or 10 μM).\nFIG. 3F depicts a cytokine release assay measuring TNF-α using the effector cells generated in FIG. 3A-B, target cells tested in FIG. 3C, and a dose titration of NaFL (0, 1, 5, or 10 μM).\nCD4+ and CD8+ T cells from peripheral blood mononuclear cell preparations from two donors were lentivirally transduced to express long CAR cassettes comprising the antiFL(Mut2) CAR. The CAR cassette also contains the gene for a double mutant dihydrofolate reductase that allows for methotrexate positive selection to enrich for transduced CAR-expressing cells as well as the gene for the truncated CD19 (CD19t) surface marker that denotes CAR positivity. The selected cells are then subjected to a standard rapid expansion protocol using irradiated TM-LCL and PBMC feeder cells. After 14 days of expansion, cells were stained with anti-CD4, anti-CD8, and anti-CD19 antibodies as well as a live-dead stain to characterize surface phenotypes by flow cytometry. Flow plots for the CD4 and CD8 populations (FIG. 3A) and CAR positivity (FIG. 3B) are shown for mock and antiFL(Mut2) CAR T cells for both donors. These are the effector cells to be used in subsequent experiments.\nA cytokine release assay was set up to examine how a dose titration of NaFL (0, 1, 5, and 10 μM) affects the activation of antiFL CAR T cells. The CAR T cells are the antiFL(Mut2) CAR T cells generated in this example. Target cells were incubated with FL-PLE/NaFL for 24 hours or overnight. The media supernatant from target cell cultures were harvested and constituent cytokines were measured (e.g. with a Bio-Plex Human Cytokine Screening Panel). The cytokines IL-2 (FIG. 3D), IFN-γ (FIG. 3E), and TNF-α (FIG. 3F) were measured."}, "[3]": {"tested_on": "antiFL(Mut2) CAR T cells", "assay": "In vivo intravenous use of NaFL to reverse cytokine toxicity by antiFL CAR T cells (Example 4)", "set-up": "species or system mice", "procedure": "Group A—control (5 mice): MDA-MB-231 tumor+antiFL(Mut2) CAR T cells.\nGroup B—FL-PLE without NaFL (5 mice): MDA-MB-231 tumor+antiFL(Mut2) CAR T cells+1 mg IV FL-PLE.\nGroup C—FL-PLE and NaFL (5 mice): MDA-MB-231 tumor+antiFL(Mut2) CAR T cells+1 mg IV FL-PLE+0.5 mg IV NaFL (as needed).\nGroup D—No tumor control (3 mice): antiFL(Mut2) CAR T cells+1 mg IV FL-PLE+0.5 mg IV NaFL (as needed).\nMice receiving FL-PLE (Groups B, C, and D) were administered FL-PLE IV first. AntiFL(Mut2) CAR T cells were subsequently administered in all mice 2 days following FL-PLE administration. […] Reduction of cytokine toxicity symptoms in mice of Groups C and D was observed within 15 minutes after administration of NaFL."}, "[4]": {"tested_on": "antiFL(FITC-E2) CAR T cells", "assay": "MDA-MB-231 xenograft mouse model: monitoring of cytokine release syndrome (CRS) and cytotoxicity", "format": "in vivo, mice", "text": "FIG. 2B depicts levels of cytokine release syndrome (CRS) and cytotoxicity in an MDA-MB-231 adenocarcinoma tumor xenograft mouse model over time. FIG. 2B (lower panel) is an enlargement of an area of FIG. 2B (upper panel).\nAfter an adenocarcinoma (MDA-MB-231) tumor was established in 2 groups of mice by subcutaneous injection (2 tumors per mouse in opposite flanks), the mice received an intravenous injection of antiFL(FITC-E2) CART cells on day 6. The control group (no drug) only received the antiFL(FITC-E2) CAR T cells and the tumor progressed as normal. […] The mice were monitored for cytokine release syndrome (CRS) and cytotoxicity on a scale ranging from 1 (healthy) to 5 (dead) (FIG. 2B). On day 17, the intratumoral dose of FL-PLE was increased to 2 μg per tumor. On day 18, the mice had levels of CRS/toxicity between 3 and 4 at which point they received a dose of 0.56 mg of NaFL via an intravenous injection. […] After this, all doses of FL-PLE were administered at 1 μg per tumor."}}}
{"compound": "O=C([O-])c1ccccc1-c1c2ccc(=O)cc-2oc2cc([O-])ccc12.[Na+].[Na+]", "note": "[NaFL, sodium fluorescein]", "values": [{"measurement": "Effect of NaFL on recognition and activation of antiFL(FITC-E2) CAR T cells", "setting": "[1]", "result": "able to stop the recognition and activation"}, {"measurement": "Amount of activation of antiFL(Mut2) CAR T cells (IL-2, IFN-γ, TNF-α) versus amount of NaFL", "setting": "[2]; NaFL 0, 1, 5, and 10 μM, all three cytokines, both donor T cells", "result": "decreased by the amount of NaFL present in the solution in a linear fashion"}, {"measurement": "Effect of NaFL on IL-2 release by antiFL(Mut2) CAR T cells", "setting": "[2]; NaFL 0, 1, 5, or 10 μM, FIG. 3D", "result": "dose dependent"}, {"measurement": "Effect of NaFL on IFN-γ release by antiFL(Mut2) CAR T cells", "setting": "[2]; NaFL 0, 1, 5, or 10 μM, FIG. 3E", "result": "dose dependent"}, {"measurement": "Effect of NaFL on TNF-α release by antiFL(Mut2) CAR T cells", "setting": "[2]; NaFL 0, 1, 5, or 10 μM, FIG. 3F", "result": "dose dependent"}, {"measurement": "Tolerability in vivo", "setting": "[3]; 0.5 mg IV NaFL, mice", "result": "well tolerated"}, {"measurement": "Time to reduction of cytokine toxicity symptoms after administration of NaFL", "setting": "[3]; Groups C and D, 0.5 mg IV NaFL", "result": "≤ 15", "unit": "min"}, {"measurement": "Cytokine levels after NaFL", "setting": "[3]; Groups C and D, 2 days following first administration of NaFL, optionally with additional IV injections", "result": "comparable to baseline"}, {"measurement": "Time for cytotoxicity level to return to roughly baseline levels after NaFL", "setting": "[4]; 0.56 mg NaFL intravenous injection on day 18", "result": "≤ 12", "unit": "h"}, {"measurement": "Cytotoxicity level after NaFL", "setting": "[4]; 0.56 mg NaFL intravenous injection on day 18 at CRS/toxicity level 3 to 4", "result": "Within minutes, the cytotoxicity level had dropped"}]}
